Laboratory results: patent publication US11850331B2, “Devices with anti-thrombogenic and anti-microbial treatment” (TELEFLEX MEDICAL INCORPORATED, priority 2013, dated 2023)

What was measured:
[1] = background statement; cited from earlier work
human blood [2] = experiment: Thrombin clotting time in whole blood, alexidine solutions (Example 1); type: biochemical; settings: partial clotting
Method: Solutions of varying alexidine concentrations (50-300 micrograms/mL) were incubated in individual test tubes, each containing 0.50 mL of human blood. The human blood was supplemented with 3.8% sodium citrate. The incubation was for 1 hour on a gyratory shaker set at 24 rpm and 37 degrees C. After 1 hour, 10 microliters of 500 Units/mL thrombin, and 60 microliters of 200 mM CaCl2 was added to each of the incubating blood samples. Blood clotting time was then measured using a stop watch. Table 1 discloses the results.

human blood [3] = experiment: Fluid phase thrombin clotting time, alexidine versus chlorhexidine (Example 4); type: biochemical; settings: for clotting time: 6.25 ug/mL; for Thrombin Clotting Time in whole blood: replicates 1-5
Method: The following provides a side-by-side comparison of alexidine with chlorhexidine. Fluid phase experiments were conducted to compare the influences of alexidine and chlorhexidine on thrombin clotting time (Table 6). […] The reaction mixtures contained freshly drawn human blood, alexidine or chlorhexidine as indicated, and exogenously added thrombin. The experiment was repeated five times, as indicated by replicates 1-5. The concentrations of alexidine or chlorhexidine that were used in the experiments were zero ug/mL (baseline), 3.125, 6.25, 12.5, 25, 50, or 100 ug/mL, as indicated. […] This dramatic difference was also observed when higher concentrations of antimicrobials were used in the clotting reactions.

SMILES	solubility in water [1]	Thrombin Clotting Time in whole blood (human blood [2]; 0.2 mg/mL alexidine)	Thrombin Clotting Time in whole blood (human blood [2]; 0.3 mg/mL alexidine)	clotting time (human blood [3])	Thrombin Clotting Time in whole blood (human blood [3]; 12.5 μg/mL) [h]	Thrombin Clotting Time in whole blood (human blood [3]; 25 μg/mL) [h]	Thrombin Clotting Time in whole blood (human blood [3]; 50 μg/mL) [h]	Thrombin Clotting Time in whole blood (human blood [3]; 100 μg/mL) [h]	potency in inhibiting blood clotting relative to chlorhexidine (human blood [3]; thrombin clotting time, fluid phase)
CCCCC(CC)CNC(=N)NC(=N)NCCCCCCNC(=N)NC(=N)NCC(CC)CCCC (stereo not shown) [alexidine]	relatively low solubility in water	Greater than 72 hours (partial clotting)	Greater than 72 hours (partial clotting)	about five	>24	>24	>24	>24	four times more potent
N=C(NCCCCCCNC(=N)NC(=N)Nc1ccc(Cl)cc1)NC(=N)Nc1ccc(Cl)cc1.O=C(O)[C@H](O)[C@@H](O)[C@H](O)[C@H](O)CO.O=C(O)[C@H](O)[C@@H](O)[C@H](O)[C@H](O)CO [CHG, chlorhexidine gluconate]	highly soluble in water								
[H]/N=C(\N/C(=N/[H])NCCCCCCNC(=N)NC(=N)Nc1ccc(Cl)cc1)Nc1ccc(Cl)cc1 [chlorhexidine]				about thirty			>24	>24	
